This note sets out measurements from patent US11492335B2, “Aryl or heteroaryl triazolone derivatives or salts thereof, or pharmaceutical compositions comprising the same” (YUHAN CORPORATION, priority 2018, dated 2022).

Structures can show the parent of a compound that is named as a salt.

Holding throughout (format): biochemical
Test [1] has as its target T1, recombinant human MAO-B (monoamine oxidase-B) (Homo sapiens, UniProt P27338).
T1 construct: purchased Sigma-Aldrich
T1 sequence (P27338 1-520): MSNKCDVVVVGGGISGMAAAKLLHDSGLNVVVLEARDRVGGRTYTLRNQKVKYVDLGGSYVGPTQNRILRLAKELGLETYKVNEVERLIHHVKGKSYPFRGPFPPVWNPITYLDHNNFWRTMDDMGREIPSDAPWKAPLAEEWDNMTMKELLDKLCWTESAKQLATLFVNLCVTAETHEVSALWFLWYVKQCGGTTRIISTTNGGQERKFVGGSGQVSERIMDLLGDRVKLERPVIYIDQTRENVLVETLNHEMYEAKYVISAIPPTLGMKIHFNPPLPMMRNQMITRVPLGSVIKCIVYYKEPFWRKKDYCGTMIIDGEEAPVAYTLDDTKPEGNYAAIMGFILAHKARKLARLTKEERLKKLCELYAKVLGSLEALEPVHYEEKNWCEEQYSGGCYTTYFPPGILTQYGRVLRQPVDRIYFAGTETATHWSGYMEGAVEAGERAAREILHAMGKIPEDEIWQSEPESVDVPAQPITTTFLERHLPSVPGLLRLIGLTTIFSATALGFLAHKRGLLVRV
As to the kind of experiment: Activity on recombinant human MAO-B, Amplex Red method, 1 mM benzylamine substrate. Particulars: 1 mM benzylamine substrate, read-out: Inhibitory Activity (IC50, nM) MAO-B. The procedure, abridged: (§1)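 Enzyme preincubated with compound 30 min at 37 °C in 50 mM sodium phosphate pH 7.4, final DMSO below 1%. Substrate was 0.5 mM tyramine for MAO-A and 1 mM benzylamine for MAO-B, with 200 uM Amplex Red and 1 U/mL HRP. H2O2-coupled resorufin fluorescence (ex 544/em 590) followed over 1–2 h; 8-point 4-parameter IC50.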

Test [2] concerns the target T2, recombinant human MAO-A (monoamine oxidase-A) (Homo sapiens, UniProt P21397).
T2 construct: purchased Sigma-Aldrich
T2 sequence (P21397 1-527): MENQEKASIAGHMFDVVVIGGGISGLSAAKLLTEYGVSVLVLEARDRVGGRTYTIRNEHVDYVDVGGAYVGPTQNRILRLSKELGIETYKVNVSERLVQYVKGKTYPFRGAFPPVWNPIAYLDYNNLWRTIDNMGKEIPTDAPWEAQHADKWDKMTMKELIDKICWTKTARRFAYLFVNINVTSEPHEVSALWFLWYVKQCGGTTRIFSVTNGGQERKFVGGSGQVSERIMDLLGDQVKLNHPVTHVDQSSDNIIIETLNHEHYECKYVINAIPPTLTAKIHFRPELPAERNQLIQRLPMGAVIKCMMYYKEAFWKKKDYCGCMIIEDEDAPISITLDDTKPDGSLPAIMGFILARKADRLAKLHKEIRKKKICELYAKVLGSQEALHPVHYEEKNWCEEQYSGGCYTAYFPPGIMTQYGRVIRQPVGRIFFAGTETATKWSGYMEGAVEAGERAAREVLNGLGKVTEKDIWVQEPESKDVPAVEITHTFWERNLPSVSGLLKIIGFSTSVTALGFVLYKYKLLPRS
As to the kind of experiment: Activity on recombinant human MAO-A, Amplex Red method, 0.5 mM tyramine substrate. The following applies: 0.5 mM tyramine substrate, read-out: Inhibitory Activity (IC50, nM) MAO-A. An outline of the steps: as §1

For test [3], the target named is T3, recombinant human VAP-1 (Homo sapiens, UniProt Q16853).
T3 construct: purchased R&D systems
T3 sequence (Q16853 1-763): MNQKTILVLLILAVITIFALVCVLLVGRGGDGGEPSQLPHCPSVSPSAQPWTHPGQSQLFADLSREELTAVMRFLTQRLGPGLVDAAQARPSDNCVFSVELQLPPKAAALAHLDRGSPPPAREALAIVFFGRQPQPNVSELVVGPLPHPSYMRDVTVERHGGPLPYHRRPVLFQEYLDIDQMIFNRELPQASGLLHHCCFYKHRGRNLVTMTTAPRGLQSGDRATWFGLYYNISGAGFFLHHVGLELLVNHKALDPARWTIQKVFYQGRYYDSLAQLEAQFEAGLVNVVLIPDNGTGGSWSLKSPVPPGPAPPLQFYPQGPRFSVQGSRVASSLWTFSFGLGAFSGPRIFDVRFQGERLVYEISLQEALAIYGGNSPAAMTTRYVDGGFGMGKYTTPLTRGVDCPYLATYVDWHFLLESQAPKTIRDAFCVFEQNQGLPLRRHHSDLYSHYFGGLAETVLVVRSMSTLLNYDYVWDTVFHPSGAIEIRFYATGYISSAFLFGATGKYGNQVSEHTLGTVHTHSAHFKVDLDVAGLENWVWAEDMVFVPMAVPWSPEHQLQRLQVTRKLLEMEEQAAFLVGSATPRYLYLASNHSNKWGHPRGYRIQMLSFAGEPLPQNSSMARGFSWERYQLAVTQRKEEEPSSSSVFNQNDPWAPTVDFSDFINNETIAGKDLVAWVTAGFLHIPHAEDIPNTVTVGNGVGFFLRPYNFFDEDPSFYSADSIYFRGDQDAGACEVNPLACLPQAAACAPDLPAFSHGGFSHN
As to the kind of experiment: Activity on recombinant human VAP-1, Amplex Red HRP-coupled hydrogen peroxide assay, benzylamine substrate. Particulars: recombinant human VAP-1, benzylamine substrate; read-out: Inhibitory Activity (IC50, nM) human VAP-1. An outline of the steps:
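Enzyme in 50 mM sodium phosphate pH 7.4 preincubated with compound 30 min at 37 °C, then 1 mM benzylamine, 200 µM Amplex Red and 1 U/mL HRP added. H2O2-derived resorufin fluorescence (ex 544/em 590 nm) followed over 1–2 h; signal-rate decrease versus DMSO control, 8-point curve, four-parameter logistic IC50.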

For test [4], the target named is T4, recombinant human DAO (diamine oxidase) (Homo sapiens, UniProt P19801).
T4 construct: purchased R&D systems
T4 sequence (P19801 20-751): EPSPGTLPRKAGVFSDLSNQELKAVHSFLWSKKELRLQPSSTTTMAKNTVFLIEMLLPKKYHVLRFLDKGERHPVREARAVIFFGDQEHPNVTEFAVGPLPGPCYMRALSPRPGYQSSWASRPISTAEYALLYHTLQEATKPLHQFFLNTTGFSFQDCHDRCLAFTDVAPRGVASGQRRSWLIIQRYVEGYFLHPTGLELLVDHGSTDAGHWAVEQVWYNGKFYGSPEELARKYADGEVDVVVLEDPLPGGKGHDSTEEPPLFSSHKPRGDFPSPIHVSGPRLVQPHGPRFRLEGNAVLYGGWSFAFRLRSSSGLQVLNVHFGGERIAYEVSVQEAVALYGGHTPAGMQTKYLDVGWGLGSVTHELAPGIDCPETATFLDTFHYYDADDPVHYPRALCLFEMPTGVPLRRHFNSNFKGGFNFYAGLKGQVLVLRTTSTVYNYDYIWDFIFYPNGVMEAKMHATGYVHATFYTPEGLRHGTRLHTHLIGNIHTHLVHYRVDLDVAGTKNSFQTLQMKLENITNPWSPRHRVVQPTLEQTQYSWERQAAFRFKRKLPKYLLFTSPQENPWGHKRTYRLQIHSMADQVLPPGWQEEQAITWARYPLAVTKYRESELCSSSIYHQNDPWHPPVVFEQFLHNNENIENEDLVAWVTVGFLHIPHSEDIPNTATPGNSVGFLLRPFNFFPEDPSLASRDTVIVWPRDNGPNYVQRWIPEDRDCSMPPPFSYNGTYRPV
As to the kind of experiment: Activity on recombinant human DAO, Amplex Red method, 1 mM putrescine substrate. The following applies: recombinant human DAO, 1 mM putrescine substrate; read-out: Inhibitory Activity (IC50, nM) DAO. An outline of the steps:
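Inhibition of recombinant human DAO (diamine oxidase, R&D systems) was assessed with the Amplex Red Hydrogen Peroxide Assay Kit. Hydrogen peroxide produced from 1 mM putrescine was detected through an HRP-coupled reaction that converts Amplex Red into fluorescent resorufin, read at 544 nm excitation and 590 nm emission. IC50 values came from four-parameter logistic fits in GraphPad Prism.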

For `Cc1cc(-c2ccc3c(c2)NC(=O)OC3)cnc1-n1cnn(C/C(=C/F)CN)c1=O` [Example 156, 7-(6-{1-[(2E)-2-(aminomethyl)-3-fluoroprop-2-en-1-yl]-5-oxo-1,5-dihydro-4H-1,2,4-triazol-4-yl}-5-methylpyridin-3-yl)-1,4-dihydro-2H-3,1-benzoxazin-2-one hydrochloride], the IC50 (usually the point on the concentration scale where inhibition reaches its midpoint) in test [1] was 26000 nM; in test [2], > 100000 nM; in test [3] it was 0.3 nM; in test [4], 38 nM.

On to `Cc1cc(-n2cnn(C/C(=C/F)CN)c2=O)ncc1-c1ccc(-c2nc[nH]n2)cc1` [Example 157, 2-[(2E)-2-(aminomethyl)-3-fluoroprop-2-en-1-yl]-4-{4-methyl-5-[4-(1H-1,2,4-triazol-3-yl)phenyl]pyridin-2-yl}-2,4-dihydro-3H-1,2,4-triazol-3-one], for which the IC50 was 3790 nM in test [1], > 100000 nM in test [2], 0.3 nM in test [3] and < 100 nM in test [4].

With `Cc1cc(-n2cnn(C/C(=C/F)CN)c2=O)ncc1-c1cccc(-c2nc[nH]n2)c1` [Example 158, 2-[(2E)-2-(aminomethyl)-3-fluoroprop-2-en-1-yl]-4-{4-methyl-5-[3-(1H-1,2,4-triazol-3-yl)phenyl]pyridin-2-yl}-2,4-dihydro-3H-1,2,4-triazol-3-one], the IC50 in test [1] is 1940 nM; in test [2], 9600 nM; in test [3] it was 0.18 nM; in test [4], < 100 nM.

Consider `Cc1cc(-n2cnn(C/C(=C/F)CN)c2=O)ncc1-c1ccc2c(c1)OCO2` [Example 159, 2-[(2E)-2-(aminomethyl)-3-fluoroprop-2-en-1-yl]-4-[5-(1,3-benzodioxol-5-yl)-4-methylpyridin-2-yl]-2,4-dihydro-3H-1,2,4-triazol-3-one], for which the IC50 in test [1] was determined as 74 nM; in test [2], 1510 nM; in test [3] it was 0.21 nM; in test [4], 1.8 nM.

Take `Cc1cc(-n2cnn(C/C(=C/F)CN)c2=O)ncc1-c1ccc2cn[nH]c2c1` [Example 160, 2-[(2E)-2-(aminomethyl)-3-fluoroprop-2-en-1-yl]-4-[5-(1H-indazol-6-yl)-4-methylpyridin-2-yl]-2,4-dihydro-3H-1,2,4-triazol-3-one]: the IC50 in test [1] was 137 nM; in test [2], 46200 nM; in test [3], 0.37 nM; in test [4] it was < 100 nM.

For the compound `Cc1cc(-n2cnn(C/C(=C/F)CN)c2=O)ncc1-c1ccc2sc(N)nc2c1` [Example 161, 4-[5-(2-amino-1,3-benzothiazol-5-yl)-4-methylpyridin-2-yl]-2-[(2E)-2-(aminomethyl)-3-fluoroprop-2-en-1-yl]-2,4-dihydro-3H-1,2,4-triazol-3-one hydrochloride], the IC50 came out at 3140 nM in test [1], 6240 nM in test [2], 6.5 nM in test [3] and 2 nM in test [4].

Consider `NC/C(=C\F)Cn1ncn(-c2ncc(-c3ccc4c(c3)OCO4)cc2F)c1=O` [Example 162, 2-[(2E)-2-(aminomethyl)-3-fluoroprop-2-en-1-yl]-4-[5-(1,3-benzodioxol-5-yl)-3-fluoropyridin-2-yl]-2,4-dihydro-3H-1,2,4-triazol-3-one hydrochloride], for which the IC50 was found to be 17 nM in test [1], 3140 nM in test [2], 1.6 nM in test [3] and 1.6 nM in test [4].

In the case of `NC/C(=C\F)Cn1ncn(-c2ncc(-c3ccc4c(c3)NCC4=O)cc2F)c1=O` [Example 163, 6-(6-{1-[(2E)-2-(aminomethyl)-3-fluoroprop-2-en-1-yl]-5-oxo-1,5-dihydro-4H-1,2,4-triazol-4-yl}-5-fluoropyridin-3-yl)-1,2-dihydro-3H-indol-3-one], the IC50 in test [1] is 740 nM; in test [2], > 100000 nM; in test [3], 0.56 nM; in test [4], 1.3 nM.

Consider `NC/C(=C\F)Cn1ncn(-c2ncc(-c3ccc4sc(N)nc4c3)cc2F)c1=O` [Example 164, 4-[5-(2-amino-1,3-benzothiazol-5-yl)-3-fluoropyridin-2-yl]-2-[(2E)-2-(aminomethyl)-3-fluoroprop-2-en-1-yl]-2,4-dihydro-3H-1,2,4-triazol-3-one hydrochloride], for which the half-maximal inhibitory concentration (IC50) is 183 nM in test [1], > 100000 nM in test [2], 0.25 nM in test [3] and 1.4 nM in test [4].

As to `CS(=O)(=O)c1ccc(-c2ccnc(-n3cnn(C/C(=C/F)CN)c3=O)c2)cc1` [Example 165, 2-[(2E)-2-(aminomethyl)-3-fluoroprop-2-en-1-yl]-4-{4-[4-(methylsulfonyl)phenyl]pyridin-2-yl}-2,4-dihydro-3H-1,2,4-triazol-3-one], the IC50 was > 10000 nM in test [1], > 100000 nM in test [2], 1.9 nM in test [3] and < 30 nM in test [4].

For `CC(=O)Nc1ccc(-c2ccnc(-n3cnn(C/C(=C/F)CN)c3=O)c2)cc1` [Example 166, N-[4-(2-{1-[(2E)-2-(aminomethyl)-3-fluoroprop-2-en-1-yl]-5-oxo-1,5-dihydro-4H-1,2,4-triazol-4-yl}pyridin-4-yl)phenyl]acetamide], the IC50 in test [1] was 2420 nM; in test [2] it was 20700 nM; in test [3] it was 0.23 nM; in test [4] it was < 30 nM.
